According to patent publication US9763448B2, “Fungicidal mixtures I comprising strobilurin-type fungicides” (BASF SE, priority 2013, dated 2017):
Read-outs that look alike come from different tables or passages of the source.

Experiments:
Format in all cases: cell-based
Phytophthora infestans = settings: 0.063 ppm, single compound; 7 days after inoculation, 18° C.
Leptosphaeria nodorum = assay: Microtest: activity against the wheat leaf spot pathogen Leptosphaeria nodorum (MTP, absorption at 405 nm); settings: 0.004 ppm, single compound; 7 days after inoculation, 18° C.
Pyricularia oryzae = settings: single compound, 7 days after inoculation, 18° C.

SMILES | Observed efficacy (Phytophthora infestans) | Observed efficacy (Leptosphaeria nodorum) | Observed efficacy (Pyricularia oryzae; 0.00025 ppm) | Observed efficacy (Pyricularia oryzae; 0.016 ppm)
CC(O)(Cn1cncn1)c1ccc(Oc2ccc(Cl)cc2)cc1C(F)(F)F (stereo not drawn) [II-6, 2-[4-(4-chlorophenoxy)-2-(trifluoromethyl)phenyl]-1-(1,2,4-triazol-1-yl)propan-2-ol] | 7% | 7% | – | –
CNC(=O)C(=N/OC)/C(C)=C\COc1ccn(-c2ccc(Cl)cc2F)n1 [I-13, (Z,2E)-5-[1-(4-chloro-2-fluoro-phenyl)pyrazol-3-yl]oxy-2-methoxyimino-N,3-dimethyl-pent-3-enamide] | 4% | 21% | 7% | –
OC(Cn1cncn1)(c1ccc(Oc2ccc(Cl)cc2)cc1C(F)(F)F)C1CC1 (stereo not drawn) [II-2, 1-[4-(4-chlorophenoxy)-2-(trifluoromethyl)phenyl]-1-cyclopropyl-2-(1,2,4-triazol-1-yl)ethanol] | – | – | – | 6%
